Measurements: ChEMBL document CHEMBL4311991, “Design, synthesis, and biological evaluation of 1-substituted -2-aryl imidazoles targeting tubulin polymerization as potential anticancer agents” (Eur J Med Chem, 2019)

What was measured:
HT-29 = assay: Antiproliferative activity against human HT-29 cells assessed as reduction in cell viability after 72 hrs by MTT assay; format: functional, cell-based; settings: HT-29, 72 h
MDA-MB-468 = assay: Antiproliferative activity against human MDA-MB-468 cells assessed as reduction in cell viability after 72 hrs by MTT assay; format: functional, cell-based; settings: MDA-MB-468, 72 h
HCT-15 = assay: Antiproliferative activity against human HCT15 cells assessed as reduction in cell viability after 72 hrs by MTT assay; format: functional, cell-based; settings: HCT-15, 72 h
T47D = assay: Antiproliferative activity against human T47D cells assessed as reduction in cell viability after 72 hrs by MTT assay; format: functional, cell-based
HeLa = assay: Antiproliferative activity against human HeLa cells assessed as reduction in cell viability after 72 hrs by MTT assay; format: functional, cell-based
MDA-MB-231 = assay: Antiproliferative activity against human MDA-MB-231 cells assessed as reduction in cell viability after 72 hrs by MTT assay; format: functional, cell-based; settings: MDA-MB-231, 72 h
HUVEC = assay: Cytotoxicity against HUVEC assessed as reduction in cell viability after 72 hrs by MTT assay; format: cell-based; settings: Homo sapiens

Structure (SMILES) | IC50 (HT-29) [µM] | IC50 (MDA-MB-468) [µM] | IC50 (HCT-15) [µM] | IC50 (T47D) [µM] | IC50 (HeLa) [µM] | IC50 (MDA-MB-231) [µM] | IC50 (HUVEC) [µM]
COc1cc(-c2nccn2C(C)C)cc(OC)c1OC | > 100 | > 100 | > 100 | > 100 | > 100 | > 100 | –
COc1cc(-c2nccn2S(=O)(=O)c2ccccc2)cc(OC)c1OC | > 100 | > 100 | > 100 | > 100 | > 100 | > 100 | –
COc1cc(-c2nccn2Cc2ccccc2)cc(OC)c1OC | > 100 | > 100 | > 100 | > 100 | > 100 | > 100 | –
COc1ccc(C(=O)Oc2cc(OC)c(OC)c(OC)c2)cc1N | > 100 | > 100 | > 100 | > 100 | > 100 | > 100 | –
CCCn1ccnc1-c1cc(OC)c(OC)c(OC)c1 | > 100 | > 100 | > 100 | > 100 | > 100 | > 100 | –
COc1cc(OC)cc(-n2ccnc2-c2cc(OC)c(OC)c(OC)c2)c1 | 74.5 | 57.5 | > 100 | > 100 | 41.4 | 45.2 | –
COc1ccc(OC(=O)c2cc(OC)c(OC)c(OC)c2)cc1[N+](=O)[O-] | > 100 | > 100 | > 100 | > 100 | > 100 | > 100 | –
CCCCn1ccnc1-c1cc(OC)c(OC)c(OC)c1 | > 100 | 44.1 | > 100 | > 100 | > 100 | 70.4 | –
COc1cc(-c2nccn2S(=O)(=O)c2ccc(C)cc2)cc(OC)c1OC | > 100 | > 100 | > 100 | > 100 | > 100 | > 100 | –
COc1cc(-c2nccn2-c2cccc([N+](=O)[O-])c2)cc(OC)c1OC | > 100 | 7.2 | > 100 | 17.9 | 6.7 | > 100 | > 100
COc1cc(-c2nccn2CC(C)C)cc(OC)c1OC | > 100 | > 100 | > 100 | > 100 | > 100 | > 100 | –
CCCCCn1ccnc1-c1cc(OC)c(OC)c(OC)c1 | 60.1 | 57.9 | > 100 | 64.4 | > 100 | 34.2 | –
COc1cc(-c2nccn2C)cc(OC)c1OC | > 100 | > 100 | > 100 | > 100 | > 100 | > 100 | –
COc1ccc(OC(=O)c2cc(OC)c(OC)c(OC)c2)cc1N | > 100 | > 100 | > 100 | > 100 | > 100 | > 100 | –
COc1ccc(C(=O)Oc2cc(OC)c(OC)c(OC)c2)cc1[N+](=O)[O-] | > 100 | 35.2 | > 100 | 29.6 | > 100 | > 100 | –
COc1ccc(C(=O)Nc2cc(OC)c(OC)c(OC)c2)cc1N | > 100 | > 100 | > 100 | > 100 | > 100 | 94.2 | –
CCn1ccnc1-c1cc(OC)c(OC)c(OC)c1 | > 100 | > 100 | > 100 | > 100 | > 100 | > 100 | –

Now those with a lower IC50 (HT-29), led by results:

IC50 (HT-29) [µM] | IC50 (MDA-MB-468) [µM] | IC50 (HCT-15) [µM] | IC50 (T47D) [µM] | IC50 (HeLa) [µM] | IC50 (MDA-MB-231) [µM] | Structure (SMILES) | IC50 (HUVEC) [µM]
14.7 | 6.2 | 25.4 | 15 | 31 | 8 | COc1cc(-c2nccn2-c2cccc3ccccc23)cc(OC)c1OC | –
0.6 | 0.1 | 1 | 10 | 2.5 | 7.5 | COc1ccc(-n2ccnc2-c2cc(OC)c(OC)c(OC)c2)cc1[N+](=O)[O-] | –
29.3 | 62.2 | 68.6 | > 100 | 17.5 | 38.4 | COc1cc(-c2nccn2-c2ccc(F)cc2)cc(OC)c1OC | –
7.7 | 2.7 | 11.7 | 24.6 | 3.3 | 8.4 | COc1cc(-c2nccn2-c2ccc(Br)cc2)cc(OC)c1OC | > 100
16.9 | 0.3 | 0.2 | 53.1 | 0.1 | 1.9 | COc1ccc(-n2ccnc2-c2cc(OC)c(OC)c(OC)c2)cc1O | 54.2
1.6 | 0.4 | 0.8 | 20.5 | 0.7 | 4.1 | COc1cc(-c2nccn2-c2ccc(C)cc2)cc(OC)c1OC | > 100
18.9 | 10.4 | 17.1 | 32.2 | 11 | 18.3 | COc1cccc(-n2ccnc2-c2cc(OC)c(OC)c(OC)c2)c1 | –
3.6 | 1.7 | 4 | 18 | 4.8 | 7.5 | COc1cc(-c2nccn2-c2ccc3cc[nH]c3c2)cc(OC)c1OC | 40
8.3 | 3 | 2 | 6 | 3.7 | 5.7 | COc1ccc(C(=O)Nc2cc(OC)c(OC)c(OC)c2)cc1[N+](=O)[O-] | –
13.1 | 0.5 | 1.3 | 1.4 | 1.2 | 2.7 | COc1ccc(-n2ccnc2-c2cc(OC)c(OC)c(OC)c2)cc1 | > 50
1.2 | 2 | 6.5 | 50.4 | 4.1 | 18.6 | COc1ccc(NC(=O)c2cc(OC)c(OC)c(OC)c2)cc1N | –
9.1 | 2.3 | 4.6 | 2.1 | 4.4 | 4.3 | COc1cc(-c2nccn2-c2ccc3[nH]ccc3c2)cc(OC)c1OC | 46.7
14.6 | 22.6 | 1.6 | 29.3 | 1.9 | 11.7 | COc1cc(-c2nccn2-c2cccc(C)c2)cc(OC)c1OC | > 100
9.7 | 2.9 | 17.6 | 34.5 | 38.7 | 31 | COc1ccc(NC(=O)c2cc(OC)c(OC)c(OC)c2)cc1[N+](=O)[O-] | –
1.5 | 0.4 | 3.3 | 17 | 1.4 | 16.8 | COc1cc(-c2nccn2-c2ccc3sccc3c2)cc(OC)c1OC | –
